Assays:
[1] = Binding affinity towards low-affinity site of Atrial natriuretic peptide receptor 1 of rabbit adrenal membrane; type: tissue-based
[2] = test system: Atrial natriuretic peptide receptor 1 (Oryctolagus cuniculus); assay: Binding affinity for low-affinity site Atrial natriuretic peptide receptor 1 of rabbit adrenal membrane; settings: Adrenal gland
[3] = test system: Atrial natriuretic peptide receptor 1 (Oryctolagus cuniculus); assay: Binding affinity towards the low-affinity site atrionatriuretic peptide receptor 1 of rabbit adrenal membrane

Row | SMILES | KL [1] | other results
1 | CC[C@H](C)[C@@H]1NC(=O)[C@@H](CCCN=C(N)N)NC(=O)CNC(=O)CNC(=O)[C@@H](Cc2ccccc2)NC(=O)[C@@H](C)NC(=O)[C@H](NC(=O)[C@H](CO)NC(=O)[C@@H](N)CO)CSSC[C@H](C(=O)N[C@H](Cc2ccccc2)C(=O)N[C@H](CCCN=C(N)N)C(=O)O)NC(=O)[C@@H]([C@@H](C)CC)NC(=O)[C@H](CCCN=C(N)N)NC(=O)[C@@H](CC(N)=O)NC1=O | 540 nM | –
2 | CC[C@H](C)[C@@H]1NC(=O)[C@H](CCCN=C(N)N)NC(=O)[C@@H](CC(=O)O)NC(=O)[C@H]([C@@H](C)CC)NC(=O)[C@@H](CCCN=C(N)N)NC(=O)CNC(=O)CNC(=O)[C@@H](Cc2ccccc2)NC(=O)CNC(=O)[C@@H](NC(=O)[C@H](CO)NC(=O)[C@@H](N)CO)CSSC[C@@H](C(=O)N[C@H](Cc2ccccc2)C(=O)N[C@@H](CCCCN)C(=O)O)NC1=O | 5900 nM | –
3 | CC[C@H](C)[C@@H]1NC(=O)[C@@H](CCCN=C(N)N)NC(=O)CNC(=O)CNC(=O)[C@@H](Cc2ccccc2)NC(=O)[C@@H](C)NC(=O)[C@H](NC(=O)[C@H](CO)NC(=O)[C@@H](N)CO)CSSC[C@H](C(=O)N[C@H](Cc2ccccc2)C(=O)N[C@H](CCCN=C(N)N)C(=O)O)NC(=O)[C@@H]([C@@H](C)CC)NC(=O)[C@H](CCCN=C(N)N)NC(=O)[C@@H](CO)NC1=O | 510 nM | –
4 | CC[C@H](C)[C@@H]1NC(=O)[C@@H](CCCN=C(N)N)NC(=O)CNC(=O)CNC(=O)[C@@H](C2CCCCC2)NC(=O)[C@H](NC(=O)[C@H](N)Cc2c[nH]cn2)CSSC[C@H](C(N)=O)NC(=O)[C@@H](CCCN=C(N)N)NC(=O)[C@H](Cc2ccccc2)NC(=O)[C@@H]([C@@H](C)CC)NC(=O)[C@H](CCCN=C(N)N)NC(=O)[C@@H](CC(=O)O)NC1=O | 190 nM | –
5 | CC[C@H](C)[C@@H]1NC(=O)[C@@H](CCCN=C(N)N)NC(=O)CNC(=O)CNC(=O)[C@@H](Cc2ccccc2)NC(=O)[C@@H](C)NC(=O)[C@H](NC(=O)[C@H](CO)NC(=O)[C@@H](N)CO)CSSC[C@H](C(=O)N[C@H](Cc2ccccc2)C(=O)N[C@H](CCCN=C(N)N)C(=O)O)NC(=O)[C@@H]([C@@H](C)CC)NC(=O)[C@H](CC(=O)O)NC(=O)[C@@H](CCCN=C(N)N)NC1=O | 7800 nM | –
6 | CC[C@H](C)[C@@H]1NC(=O)[C@@H](CCCN=C(N)N)NC(=O)CNC(=O)CNC(=O)[C@@H](C2CCCCC2)NC(=O)[C@H](NC(=O)[C@H](N)CCCN=C(N)N)CSSC[C@H](C(N)=O)NC(=O)[C@@H](CCCN=C(N)N)NC(=O)[C@H](Cc2ccccc2)NC(=O)[C@@H](C)NC(=O)[C@H](CCCN=C(N)N)NC(=O)[C@@H](CC(=O)O)NC1=O | – | KL [2]: 0.23 µM
7 | CC[C@H](C)[C@@H]1NC(=O)[C@@H](CCCN=C(N)N)NC(=O)CNC(=O)CNC(=O)[C@@H](C2CCCCC2)NC(=O)CCSSC[C@H](C(N)=O)NC(=O)[C@@H](CCCN=C(N)N)NC(=O)[C@@H](Cc2ccccc2)NC(=O)[C@@H]([C@@H](C)CC)NC(=O)[C@H](CCCN=C(N)N)NC(=O)[C@@H](CC(=O)O)NC1=O | – | KL [2]: 6.5 µM
8 | CC[C@H](C)[C@@H]1NC(=O)[C@@H](CCCN=C(N)N)NC(=O)CNC(=O)CNC(=O)[C@@H](Cc2ccccc2)NC(=O)CNC(=O)[C@H](NC(=O)[C@H](CO)NC(=O)[C@@H](N)CO)CSSC[C@H](C(=O)N[C@@H](Cc2ccccc2)C(=O)N[C@H](CCCN=C(N)N)C(=O)O)NC(=O)[C@@H]([C@@H](C)CC)NC(=O)[C@H](CCCN=C(N)N)NC(=O)[C@@H](CC(=O)O)NC1=O | 780 nM | –
9 | CC[C@H](C)[C@@H]1NC(=O)[C@@H](CCCN=C(N)N)NC(=O)CNC(=O)CNC(=O)[C@@H](Cc2ccccc2)NC(=O)[C@H](NC(=O)[C@H](N)CCCN=C(N)N)CSSC[C@H](C(=O)O)NC(=O)[C@@H](CCCN=C(N)N)NC(=O)[C@H](Cc2ccccc2)NC(=O)[C@@H]([C@@H](C)CC)NC(=O)[C@H](CCCN=C(N)N)NC(=O)[C@@H](CC(=O)O)NC1=O | 660 nM | –
10 | CC[C@H](C)[C@@H]1NC(=O)[C@@H](CCCN=C(N)N)NC(=O)CNC(=O)CNC(=O)[C@@H](Cc2ccccc2)NC(=O)CNC(=O)[C@H](NC(=O)[C@H](CO)NC(=O)[C@@H](N)CO)CSSC[C@H](C(=O)N[C@H](Cc2ccccc2)C(=O)N[C@H](CCCN=C(N)N)C(=O)O)NC(=O)[C@@H]([C@@H](C)CC)NC(=O)[C@H](CCCN=C(N)N)NC(=O)[C@@H](CC(=O)OC)NC1=O | 1400 nM | –
11 | CC[C@H](C)[C@@H]1NC(=O)[C@@H](CCCN=C(N)N)NC(=O)CNC(=O)CNC(=O)[C@@H](Cc2ccccc2)NC(=O)[C@@H](C)NC(=O)[C@H](NC(=O)[C@H](CO)NC(=O)[C@@H](N)CO)CSSC[C@H](C(=O)N[C@H](Cc2ccccc2)C(=O)N[C@H](CCCN=C(N)N)C(=O)O)NC(=O)[C@@H]([C@@H](C)CC)NC(=O)[C@H](CCCN=C(N)N)NC(=O)CNC1=O | 740 nM | –
12 | CC[C@H](C)[C@@H]1NC(=O)[C@H](CCCN=C(N)N)NC(=O)[C@@H](CC(=O)O)NC(=O)[C@H]([C@@H](C)CC)NC(=O)[C@@H](CCCN=C(N)N)NC(=O)CNC(=O)CNC(=O)[C@@H](Cc2ccccc2)NC(=O)CNC(=O)[C@@H](NC(=O)[C@H](CO)NC(=O)[C@@H](N)CO)CSSC[C@@H](C(=O)N[C@H](Cc2ccccc2)C(=O)N[C@@H](CCCCN=C(N)N)C(=O)O)NC1=O | 320 nM | –
13 | CC[C@H](C)[C@@H]1NC(=O)[C@@H](CCCN=C(N)N)NC(=O)CNC(=O)CNC(=O)[C@@H](Cc2ccccc2)NC(=O)CNC(=O)[C@H](NC(=O)[C@H](CO)NC(=O)[C@@H](N)CO)CSSC[C@H](C(=O)N[C@H](Cc2ccccc2)C(=O)N[C@@H](CCCN=C(N)N)C(=O)O)NC(=O)[C@@H]([C@@H](C)CC)NC(=O)[C@H](CCCN=C(N)N)NC(=O)[C@@H](CC(=O)O)NC1=O | 620 nM | –
14 | CC[C@H](C)[C@@H]1NC(=O)[C@@H](CCCN=C(N)N)NC(=O)CNC(=O)CNC(=O)[C@@H](Cc2ccccc2)NC(=O)CNC(=O)[C@H](NC(=O)[C@H](CO)NC(=O)[C@@H](N)CO)CSSC[C@H](C(=O)N[C@H](Cc2ccccc2)C(=O)NCC(=O)O)NC(=O)[C@@H]([C@@H](C)CC)NC(=O)[C@H](CCCN=C(N)N)NC(=O)[C@@H](CC(=O)O)NC1=O | 3100 nM | –
15 | CC[C@H](C)[C@@H]1NC(=O)[C@@H](CCCN=C(N)N)NC(=O)CNC(=O)CNC(=O)[C@@H](Cc2ccccc2)NC(=O)[C@@H](C)NC(=O)[C@H](NC(=O)[C@H](CO)NC(=O)[C@@H](N)CO)CSSC[C@H](C(=O)N[C@H](Cc2ccccc2)C(=O)N[C@H](CCCN=C(N)N)C(=O)O)NC(=O)[C@@H]([C@@H](C)CC)NC(=O)[C@H](CCCN=C(N)N)NC(=O)[C@@H](C)NC1=O | 1000 nM | –
16 | CC[C@H](C)[C@@H]1NC(=O)[C@@H](CCCN=C(N)N)NC(=O)CNC(=O)CNC(=O)[C@@H](Cc2ccc(O)cc2)NC(=O)C(C)NC(=O)[C@H](NC(=O)[C@H](CO)NC(=O)[C@@H](N)CO)CSSC[C@H](C(=O)N[C@H](Cc2ccccc2)C(=O)N[C@H](CCCN=C(N)N)C(=O)O)NC(=O)[C@@H]([C@@H](C)CC)NC(=O)[C@H](CCCN=C(N)N)NC(=O)[C@@H](CC(=O)O)NC1=O (stereo in doubt) | 10000 nM | –
17 | CC[C@H](C)[C@@H]1NC(=O)[C@@H](CCCN=C(N)N)NC(=O)Cc2ccc(cc2)NC(=O)Cc2ccc(cc2)NC(=O)[C@@H](Cc2ccccc2)NC(=O)C(C)NC(=O)[C@H](NC(=O)[C@H](CO)NC(=O)[C@@H](N)CO)CSSC[C@H](C(=O)N[C@H](Cc2ccccc2)C(=O)N[C@H](CCCN=C(N)N)C(=O)O)NC(=O)[C@@H]([C@@H](C)CC)NC(=O)[C@H](CCCN=C(N)N)NC(=O)[C@@H](CC(=O)O)NC1=O (stereo in doubt) | 1400 nM | –
18 | CC[C@H](C)[C@@H]1NC(=O)[C@@H](CCCN=C(N)N)NC(=O)CNC(=O)CNC(=O)[C@@H](Cc2ccccc2)N(C)C(=O)C(C)NC(=O)[C@H](NC(=O)[C@H](CO)NC(=O)[C@@H](N)CO)CSSC[C@H](C(=O)N[C@H](Cc2ccccc2)C(=O)N[C@H](CCCN=C(N)N)C(=O)O)NC(=O)[C@@H]([C@@H](C)CC)NC(=O)[C@H](CCCN=C(N)N)NC(=O)[C@@H](CC(=O)O)NC1=O (stereo in doubt) | 290 nM | –
19 | CC[C@H](C)[C@@H]1NC(=O)[C@@H](CCCN=C(N)N)NC(=O)CNC(=O)CNC(=O)[C@@H](Cc2ccc(OC)c(OC)c2)NC(=O)C(C)NC(=O)[C@H](NC(=O)[C@H](CO)NC(=O)[C@@H](N)CO)CSSC[C@H](C(=O)N[C@H](Cc2ccccc2)C(=O)N[C@H](CCCN=C(N)N)C(=O)O)NC(=O)[C@@H]([C@@H](C)CC)NC(=O)[C@H](CCCN=C(N)N)NC(=O)[C@@H](CC(=O)O)NC1=O (stereo in doubt) | 13000 nM | –
20 | CC[C@H](C)[C@@H]1NC(=O)[C@@H](CCCN=C(N)N)NC(=O)CNC(=O)CNC(=O)[C@@H](C2CCCCC2)NC(=O)CCSSC[C@H](C(N)=O)NC(=O)[C@@H](CCCN=C(N)N)NC(=O)[C@H](Cc2ccccc2)NC(=O)[C@@H]([C@@H](C)CC)NC(=O)[C@H](CCCN=C(N)N)NC(=O)[C@@H](CC(=O)O)NC1=O | 300 nM | –
21 | CC[C@H](C)[C@@H]1NC(=O)[C@@H](CCCN=C(N)N)NC(=O)CNC(=O)CNC(=O)[C@@H](C2CCCCC2)NC(=O)[C@H](NC(=O)[C@H](N)CCCN=C(N)N)CSSC[C@H](C(N)=O)NC(=O)[C@@H](CCCN=C(N)N)NC(=O)[C@@H]2Cc3ccccc3CN2C(=O)[C@@H]([C@@H](C)CC)NC(=O)[C@H](CCCN=C(N)N)NC(=O)[C@@H](CC(=O)O)NC1=O | 270 nM | –
22 | CC[C@H](C)[C@@H]1NC(=O)[C@@H](CCCN=C(N)N)NC(=O)Cc2cccc(c2)NC(=O)Cc2cccc(c2)NC(=O)[C@@H](Cc2ccccc2)NC(=O)C(C)NC(=O)[C@H](NC(=O)[C@H](CO)NC(=O)[C@@H](N)CO)CSSC[C@H](C(=O)N[C@H](Cc2ccccc2)C(=O)N[C@H](CCCN=C(N)N)C(=O)O)NC(=O)[C@@H]([C@@H](C)CC)NC(=O)[C@H](CCCN=C(N)N)NC(=O)[C@@H](CC(=O)O)NC1=O (stereo in doubt) | 810 nM | –
23 | CC[C@H](C)[C@@H]1NC(=O)[C@@H](CCCN=C(N)N)NC(=O)[C@H](CC(=O)O)NC(=O)[C@@H]([C@@H](C)CC)NC(=O)[C@H](CCCN=C(N)N)NC(=O)CNC(=O)CNC(=O)[C@H](Cc2ccccc2)NC(=O)CN(C)C(=O)[C@@H](NC(=O)[C@@H](CO)NC(=O)[C@H](N)CO)CSSC[C@@H](C(=O)N[C@H](Cc2ccccc2)C(=O)N[C@H](CCCN=C(N)N)C(=O)O)NC1=O | – | KL [3]: 410 nM

— ChEMBL document CHEMBL1125386, “Small atrial natriuretic peptide analogues: design, synthesis, and structural requirements for guanylate cyclase activation” (J Med Chem, 1992)
